99 compounds from ChEMBL document CHEMBL3507680, “University of Dundee, Gates Library screen for HepG2 cell viability” can be followed below.

A short description of the data set: Human HepG2 cell viability assay in 384 well format. To be noted: HepG2 cells, read-out: Inhibition. The arrangement: dose 125 nL, time 70.5 hour; concentration not given beside the values. Format: toxicity, cell-based.
Regarding `Cc1cccc(N2CCN(CCNC(=O)C(C)n3cncn3)CC2)c1` (centres undefined), the cytotoxicity at 70.5 h was -6.98%.

Regarding `O=C(Cc1cccnc1)NC1CCCN(CCCc2ccccc2)C1` (centres undefined), the cytotoxicity at 70.5 h is -8.8%.

Take `CN(C)C(=O)[C@H]1C[C@@H]2CN(S(=O)(=O)c3ccccc3)C[C@H]1O2`: the cytotoxicity at 70.5 h is -6.1%.

As to `COCCC(=O)N1CCN(CC2CC2)c2ncccc2C1`, the cytotoxicity at 70.5 h came out at 8.88%.

For `CC(=O)N1[C@H](CN(C)C)C[C@@H]2CN(C(=O)c3ccsc3)CC[C@@H]21`, the cytotoxicity at 70.5 h is -12.2%.

As for `Cc1nc(CN2CCOC3(CCCC3)C2)oc1C`, the cytotoxicity at 70.5 h is -4.4%.

Regarding `CNS(=O)(=O)CCCN(C)Cc1cc(C)ccc1OC`, the cytotoxicity at 70.5 h was -13.2%.

With `O=C([C@@H]1CSCN1)N1CC2(CCNCC2)c2cc(Cl)ccc21`, the cytotoxicity at 70.5 h was -3.25%.

Turning to `NC(=O)CCCNC(=O)Cc1cccc(I)c1`, the cytotoxicity at 70.5 h is -1.69%.

With `O=C(c1ccoc1)N1C[C@@H]2[C@@H](C1)OCC(=O)N2Cc1cccnc1`, the cytotoxicity at 70.5 h is -3.91%.

As to `N#Cc1c(Cl)nsc1NCc1ccc(N2CCCC(C(N)=O)C2)cc1` (centres undefined), the cytotoxicity at 70.5 h is -2.18%.

For the compound `Cc1noc(CN2CCN(C(C)C(=O)NCc3cccs3)CC2)n1` (centres undefined), the cytotoxicity at 70.5 h was determined as 13.6%.

Take `O=C(c1cc(-c2ccccc2)nc2onc(C3CC3)c12)N1CC[C@H](O)C1`: the cytotoxicity at 70.5 h is -11.3%.

`CCN(C)C1CCCc2nc(C)sc21` (centres undefined): the cytotoxicity at 70.5 h is -5.07%.

As to `CC(C)N(C)C(=O)C1CCN(Cc2cc3c(cc2O)CCC3)CC1`, the cytotoxicity at 70.5 h was -5.17%.

For the compound `CCOc1ccc(C(F)(F)F)cc1NC(=O)N1CCC(C(N)=O)CC1`, the cytotoxicity at 70.5 h was -4.57%.

In the case of `Cn1nc(Br)c2c(NCCCS(N)(=O)=O)ncnc21`, the cytotoxicity at 70.5 h was -22.7%.

For the compound `CCN1CCC2(CC1)CC(NCc1ccncc1)c1ccccc1O2` (centres undefined), the cytotoxicity at 70.5 h was -20.8%.

For `CN(C)c1ccnc(-c2ccnc3c2ccn3C)n1`, the cytotoxicity at 70.5 h is -5.41%.

Take `c1ccc(-c2ncc3c(n2)C2(CCN(c4ncccn4)C2)COC3)cc1` (centres undefined): the cytotoxicity at 70.5 h is -2.35%.

In the case of `COc1ccc(C(=O)N2C[C@@H](CN3CCOCC3)[C@@H](CO)C2)c(C)c1`, the cytotoxicity at 70.5 h was -7.76%.

`CNC(=O)Cn1nnc(-c2cc3ccccc3o2)n1`: the cytotoxicity at 70.5 h is -5.34%.

For `O=C(COCc1ccccc1Cl)N1CCN(c2ccc(Br)cn2)CC1`, the cytotoxicity at 70.5 h is -4.89%.

Consider `NC(=O)Cn1cc(NC(=O)N2CCCCCC2)cn1`, for which the cytotoxicity at 70.5 h was -11.1%.

Turning to `Cc1nn(C)c(C)c1CN(C(=O)c1cnc(O)cn1)C(C)C`, the cytotoxicity at 70.5 h is -2.89%.

Take `CCOc1ccc(C(=O)N2CCCC2c2c(C)nn(C)c2OC)cn1` (centres undefined): the cytotoxicity at 70.5 h is -4.47%.

Consider `Cc1cnc(CN2CCCCC2c2nc(-c3ccccc3)no2)cn1` (centres undefined), for which the cytotoxicity at 70.5 h was -7.59%.

In the case of `CCOC(=O)CNc1nc(COC)nc2c1cnn2C`, the cytotoxicity at 70.5 h is -4.25%.

Turning to `COCC(=O)N1CCCC(C(=O)c2cnn(-c3ccc(F)cc3)c2N)C1` (centres undefined), the cytotoxicity at 70.5 h turned out to be 9.29%.

For `Cc1noc(C(C)C)c1C(=O)NCCC(=O)N1CCCCC1`, the cytotoxicity at 70.5 h was -19%.

As to `Cc1noc(C)c1C(=O)N1C[C@@H]2C[C@@H](c3ccncn3)O[C@@H]2C1`, the cytotoxicity at 70.5 h was -3.05%.

With `Cc1occc1C(=O)NCC(=O)N(C)CCCOc1ccc(F)cc1`, the cytotoxicity at 70.5 h was -6.91%.

Consider `CN1CCN(C2CCOCC2)CC12CCC(=O)N(CC1CC1)CC2` (centres undefined), for which the cytotoxicity at 70.5 h was -6.33%.

Turning to `Cc1nc(N)ncc1C(=O)N1CCCC(CCc2ccc(F)cc2)C1` (centres undefined), the cytotoxicity at 70.5 h was -18.8%.

Turning to `Cc1cccnc1NC(=O)NCc1ccc(N2CCNC(=O)C2)cc1`, the cytotoxicity at 70.5 h is -10.1%.

As for `O=C(NCCn1ccnc1)N1CCCC1c1ccsc1` (centres undefined), the cytotoxicity at 70.5 h was -4.3%.

As to `Cc1noc([C@@H]2C[C@H](NC(=O)Nc3ccccc3)CN2C)n1`, the cytotoxicity at 70.5 h was -1.94%.

Take `O=C1CCCC2=C1C(c1ccc(F)cc1F)Nc1nonc1N2` (centres undefined): the cytotoxicity at 70.5 h stood at 12.1%.

`CC(CCc1cccn1C)NC(=O)Nc1cccn(C)c1=O` (centres undefined): the cytotoxicity at 70.5 h was -10.4%.

For `CC(Cc1c(F)cccc1F)NC(=O)CN(CC(N)=O)C(C)C` (centres undefined), the cytotoxicity at 70.5 h is -2.04%.

Turning to `O=C(C1CCOCC1)N1CCC(OCc2cccnc2)CC1`, the cytotoxicity at 70.5 h is -12%.

As for `CC(C)c1ccc(OCCC(=O)N2CCC(C(N)=O)CC2)cc1`, the cytotoxicity at 70.5 h is -4.09%.

With `CC(C)OCc1cccc(NC(=O)N2CCCC(CCC(N)=O)C2)c1` (centres undefined), the cytotoxicity at 70.5 h amounted to 6.13%.

`CCc1nc(CN2CCCC2C(=O)NC)cs1` (centres undefined): the cytotoxicity at 70.5 h was -0.35%.

For `CC(C)C1CN(S(=O)(=O)C2CC2)CCCN1Cc1ccc(F)cc1` (centres undefined), the cytotoxicity at 70.5 h is -3.51%.

Regarding `CCC(=O)N1CCc2[nH]cnc2C12CCN(C1CCOCC1)CC2`, the cytotoxicity at 70.5 h is -4.44%.

Turning to `CSCc1ccc(CNCCN2CCOCC2)o1`, the cytotoxicity at 70.5 h is -12.8%.

For the compound `Cc1noc(OCCOc2ccc(C#N)cc2)n1`, the cytotoxicity at 70.5 h was determined as 5.31%.

For the compound `CC(C)NC(=O)N1CCOC2(CCCN(c3cccc(C#N)c3)C2)C1` (centres undefined), the cytotoxicity at 70.5 h was -10.4%.

As to `CCn1cc(CN2CCC(N3CCC(O)CC3)CC2)cc1C#N`, the cytotoxicity at 70.5 h was -5.22%.

`CC(C)NC(=O)CS(=O)(=O)Cc1cc(Cl)c2c(c1)OCCO2`: the cytotoxicity at 70.5 h was -1.77%.

With `CNC(=O)Cc1noc(-c2cc3c(s2)CCC(C)(C)C3)n1`, the cytotoxicity at 70.5 h was -3.09%.

Turning to `COC(=O)Nc1nc2c(s1)CN(C(=O)NCc1cccs1)CC2`, the cytotoxicity at 70.5 h was -7.97%.

Regarding `Cc1cc(C(=O)N2CC[C@H](OCC3CC3)[C@@H]2Cc2cccnc2)no1`, the cytotoxicity at 70.5 h is -4.43%.

With `CCN(CC)C1CCN(C(=O)c2cc(-n3cccn3)ccc2Cl)CC1`, the cytotoxicity at 70.5 h was -0.746%.

Turning to `COc1ccccc1S(=O)(=O)N1CCC(Oc2cccnn2)CC1`, the cytotoxicity at 70.5 h was 3.7%.

With `CC1CCN(C(=O)C(C)N2CCN(c3nccs3)CC2)CC1` (centres undefined), the cytotoxicity at 70.5 h is -7%.

As for `NC(=O)C1CCN(Cc2cc3c(cc2Br)OCCO3)C1` (centres undefined), the cytotoxicity at 70.5 h was -1.46%.

Consider `COc1ccccc1N1CCN(C(=O)CCc2nncn2C)C(C)C1` (centres undefined), for which the cytotoxicity at 70.5 h is 17.3%.

Consider `Cc1ccc(OCC(C)NC(=O)CN(C)c2ccc(C#N)cn2)cc1` (centres undefined), for which the cytotoxicity at 70.5 h was -3.51%.

For the compound `CC(C)c1nn(C)c(N(C)C)c1CNCCC(=O)N(C)C`, the cytotoxicity at 70.5 h is -2.45%.

In the case of `Cc1noc(C)c1CN1C[C@@H]2CN(C(=O)c3cscn3)C[C@@H]2C1`, the cytotoxicity at 70.5 h is -2.29%.

For the compound `Cc1oc(-c2ccccc2)nc1CC(=O)NC1=NCCS1`, the cytotoxicity at 70.5 h was -11%.

Regarding `COC(=O)[C@@H]1C[C@@H](NC(=O)CN2C(=O)N(C)Cc3ccccc32)CN1C`, the cytotoxicity at 70.5 h is -3.77%.

Regarding `CC(C)CN1CCN(S(=O)(=O)c2cn(C)cn2)[C@H]2CS(=O)(=O)C[C@H]21`, the cytotoxicity at 70.5 h was -9.12%.

For `CC(C)N1C(=O)C2(CCN(C)CC2)c2cc(F)ccc21`, the cytotoxicity at 70.5 h is -7.44%.

Regarding `CSc1ccc(CNc2n[nH]c(C)n2)cc1`, the cytotoxicity at 70.5 h turned out to be 44.9%.

With `O=C(c1cccc2ncccc12)N1CCC(Nc2cccnn2)CC1`, the cytotoxicity at 70.5 h is -3.36%.

With `O=C(C1CCOC1)N1CCN(Cc2ccncc2)c2ncccc2C1` (centres undefined), the cytotoxicity at 70.5 h was -9.12%.

As to `O=C(C1CC(=O)N(c2ccccc2Br)C1)N1CCC2(CC1)OCCO2` (centres undefined), the cytotoxicity at 70.5 h is -6.47%.

For `Cc1cc(NC(=O)C(c2cccc(F)c2)N2CCOCC2)sn1` (centres undefined), the cytotoxicity at 70.5 h is 8.13%.

For the compound `Cn1cnnc1S(=O)(=O)C1CCN(C(=O)c2cccs2)CC1`, the cytotoxicity at 70.5 h was -10.5%.

On to `c1coc(CN2CCn3c(nc4ccccc43)C2)c1`, for which the cytotoxicity at 70.5 h worked out at 29.8%.

In the case of `O=C(NC1CCN(C2CC2)C1)c1cn(-c2ccc(F)cc2)nn1` (centres undefined), the cytotoxicity at 70.5 h was -6.52%.

In the case of `O=C(c1cc(C2CC2)[nH]n1)N1CCCC(n2cncn2)C1` (centres undefined), the cytotoxicity at 70.5 h was -0.297%.

Turning to `Cc1ccc(N2CCCC(N(C)Cc3cc(C)on3)C2)nn1` (centres undefined), the cytotoxicity at 70.5 h is -5.56%.

On to `Cc1cc(CN2C[C@@H]3COC[C@]3(COCc3csc(C)n3)C2)no1`, for which the cytotoxicity at 70.5 h came to 2.9%.

Regarding `COc1ccc(C(C(=O)O)N(C)Cc2ccon2)cc1Cl` (centres undefined), the cytotoxicity at 70.5 h is -4.56%.

`CCNC(=O)c1ccnc(NCC2COc3cc(OC)ccc3C2)c1` (centres undefined): the cytotoxicity at 70.5 h was -3.26%.

Consider `Cn1ccnc1C(=O)NCCS(=O)(=O)c1ccc(C(C)(C)C)cc1`, for which the cytotoxicity at 70.5 h is -3.28%.

`CC(CCc1ccc(O)cc1)NC1CCN(S(C)(=O)=O)CC1` (centres undefined): the cytotoxicity at 70.5 h is -4.22%.

Turning to `C1CC(NCC2CC2)CN(Cc2noc(C3CC3)n2)C1` (centres undefined), the cytotoxicity at 70.5 h was -15.4%.

Turning to `Cc1cc(C(=O)N2CCCC3(CN(C)C(=O)O3)C2)c2ccc(F)cc2n1` (centres undefined), the cytotoxicity at 70.5 h is 16.1%.

As for `O=c1c(CN2CCSCC2)coc(O)c1CN1CCCC1`, the cytotoxicity at 70.5 h is 29.9%.

Turning to `Cn1ncc2c1CCCC2NCc1cc(Br)cs1` (centres undefined), the cytotoxicity at 70.5 h is -0.587%.

As for `Cc1nc2ccccc2n1Cc1cc(C(=O)N(C)C2CCOC2)n[nH]1` (centres undefined), the cytotoxicity at 70.5 h is -12.8%.

Consider `COCCN1CCn2cc(CNC(=O)C3CCC3)nc2C1`, for which the cytotoxicity at 70.5 h stood at 1.63%.

Consider `Cc1cc(C(C)(O)CNC(=O)OC(C)(C)C)c(C)o1` (centres undefined), for which the cytotoxicity at 70.5 h is 0.912%.

As to `Cc1ncsc1C(=O)NCCn1nc(C2CCNC2)c2cccnc21` (centres undefined), the cytotoxicity at 70.5 h is -14.3%.

Turning to `CCN(CC1CCOC1)S(=O)(=O)Cc1cc(Cl)ccc1OC` (centres undefined), the cytotoxicity at 70.5 h is -14.8%.

Take `COc1ccc(Cl)cc1C(=O)N1CCCC(n2nc(C)nc2C)C1` (centres undefined): the cytotoxicity at 70.5 h was 27.7%.

For `CN(C)C(=O)COCc1cncc2c1CCN(Cc1nccn1C)C2`, the cytotoxicity at 70.5 h was -7.66%.

For `CC(CO)NC(=O)Nc1ccc(Cl)cc1OCC(F)(F)F` (centres undefined), the cytotoxicity at 70.5 h was -4.37%.

`CN1CCC(C)(CN(C)C(=O)c2ccc(CCC(C)(C)O)cc2)C1` (centres undefined): the cytotoxicity at 70.5 h was -1.78%.

With `Cc1noc(C)c1CC(=O)NCc1ccnc(OCC(F)(F)F)c1`, the cytotoxicity at 70.5 h is -7.45%.

`Cc1cnn(CC2CCCCN2C(=O)Cc2cn3ccsc3n2)c1` (centres undefined): the cytotoxicity at 70.5 h is 11.4%.

Take `COC1CCCN(C(=O)c2sc(CC(C)C)nc2C)C1` (centres undefined): the cytotoxicity at 70.5 h is -6.5%.

Regarding `CC(C)[C@H](NC(=O)NC1CCS(=O)(=O)C1)C(=O)Nc1cccnc1` (some centres undefined), the cytotoxicity at 70.5 h is 9.45%.

As to `CSC(C)(C)CNC(=O)NC1CCN(CC(F)F)CC1`, the cytotoxicity at 70.5 h was -1.88%.
